Source: US11541044B2, “K-Ras modulators” (The Regents of the University of California, priority 2015, dated 2023)
“Also recorded” adds a separate entry of the source.

What was measured:
[1] = Reactivity of FB9 with BME; assay type: physicochemical; conditions: 1 mM FB9, 5 mM BME, 37° C., 55 minutes
Method: FIGS. 20A-20C. Reactivity of Tetrafluorophenoxy-6B9 (FB9) with BME; experiment was done with 1 mM FB9 and minus or plus 5 mM BME at 37° C.

K-Ras G12D = target: T1, K-Ras G12D (Homo sapiens, UniProt P01116, G12D); assay: Covalent binding of electrophile compounds to K-Ras G12D (mass spectrometry)
T1 construct: Rec full length G12D became loaded with either GDP or GTPyS and Mg2+; His tag
Method: FIGS. 13A-13E. […] FIG. 13B and FIG. 13D were performed after 5 hours. FIG. 13C and FIG. 13E were performed at 23 hours.
FIGS. 15A-15D. Experiments with Stereoisomers of Difluorophenoxy-6B9; Kras G12D/GTPyS/Mg2+, DMSO control, 2 h incubation at RT; The binding of FB9 to Kras G12D was compared with the stereoisomers of Difluorophenoxy-6B9 (53, 54); FB9 bound 100% after 2 h incubation; Difluorophenoxy-6B9 (compound ‘53’) bound to about 62% compared to FB9 under the same condition; The stereoisomer (‘54’) of compound ‘53’ bound to roughly 35% compared to FB9 which is roughly 50% of compound ‘53’; Partial stereospecific interaction.

[2] = test system: Ras-less cells exogenously expressing K-Ras G12D; assay: EGF stimulation plus FB9 in G12D expressing RAS-less MEFS; assay type: cell-based; conditions: EGF for 30 and 60 minutes, FB9 at various concentrations
Method: FIG. 22. Cell Based Assays with G12D expressing RAS-less MEFS; Ras-less cells exogenously expressing K-Ras G12D were stimulated with EGF for 30 and 60 minutes. Concomitantly FB9 was added at various concentrations. Similar experiments were done with pancreatic cell lines expressing various oncogenic mutations. […] Growth curves were also performed.

Kras = assay: Interaction of FB9 with Kras in the absence or presence of BME; assay type: binding, human; conditions: RT
[3] = target: T2, KRAS4b (1-188), unprocessed (Homo sapiens, UniProt P01116); assay: MALDI-TOF analysis of modification of unprocessed KRAS4b; assay type: binding
T2 construct: G (one extra N-terminal glycine before Met1, remnant of the construct) (N); made in house; host or cells: E. coli
Method: FIG. 27. Comparing Gel Mobility and Antibody Reactivity of Different Purified K-Ras 4B Forms. E. Coli: unprocessed K-ras 4B purified from E. coli. Fme: processed K-ras 4B purified from SF9 cells. FB9: unprocessed K-ras 4B labeled with FB9 to about 70%.
Chemical modification of unprocessed KRAS-4b at His-95 (protein G-Hs.KRAS4b(1-188), mass (average) 21481.59 Da.
KRAS4b (FIG. 43) was modified by FB9 in vitro (using 8.8-fold molar excess of FB9 for 1 h at 37° C., followed by 16 h at room temperature, 22° C.). […] Molecular species with 1 and 2 and 3 modification groups were present (FIG. 44).
To identify the modified amino acid residues, the protein preparation was digested by protease Glu-C. […] Peptide with m/z 1735 corresponds to sequence GKKKKKKSKTKCVIM (SEQ ID NO: 3) (174-189) and m/z 2085 corresponds to the same peptide modified by FB9 at Cys-186 (confirmed by fragmentation).
To identify other potential residues modified by FB9, peptides obtained after digestion by Glu-C were further digested by trypsin (FIG. 46A).

fmeKRAS4b = target: T3, fmeKRAS4b (Homo sapiens, UniProt P01116); assay: MALDI-TOF analysis of modification of processed (farnesylated, carboxymethylated) KRAS4b; assay type: binding
T3 construct: GG (two N-terminal glycines in place of Met1, remnant of the construct) (N); made in house; host or cells: SF9 insect cells
Method: FIG. 36. Modification of fmeKRAS4b by FB9. Recombinant fmeKRAS4b was loaded with GDP or GppNHp (a nonhydrolyzable analogue of GTP), then reacted with FB9 at 37° C. for 100 min.
Modification of processed (farnesylated and carboxylmethylated KRAS4b). Protein prep GG-HsKRAS-4b, RP1151105092454 FmeKRAS4b (FIG. 47A) was modified by FB9 with 7.6-fold molar excess of FB9 for 1 h at 37° C., followed by 16 h at room temperature (22° C.). […] To identify the modified amino acid residues protein preparation was digested by trypsin.
During fragmentation, these modified peptides yielded intensive fragment corresponding to unmodified peptide and fragments of peptide (mostly without modification).
These peptides were modified on His residues. To identify which His was modified (i.e. 95 or 96 in the sequence of used recombinant KRAS) fragmentation spectra were analyzed in BioTools when FB9 modification (C17H20Cl1N2O4, 350/351) was set on one of these His residues in Sequence Editor.
In fragmentation spectrum of 1554 a fragment 825.409 was present but not in a spectrum of 1203. When FB9 modification was on His-7 this fragment was assigned by BioTools as modified y-3. Manual examination of the spectrum confirmed this conclusion.

SMILES: COc1ccc(Cl)cc1C(=O)N1CCC[C@H](C(=O)NCC(=O)COc2c(F)c(F)cc(F)c2F)C1 [FB9, (3S)-1-[(5-Chloro-2-methoxyphenyl)carbonyl]-N-[2-oxo-3-(2,3,5,6-tetrafluorophenoxy)propyl]piperidine-3-carboxamide]
- product formed with BME (reduction of the free compound peak) [1]: about 25%
- bound better than enantiomer FB9D (K-Ras G12D; K-Ras (G12D), GTPyS/Mg, 50 μM for 2.5 h at RT): 25-30%
- labelling at a second site (K-Ras G12D; K-Ras/GDP/Mg2+, 5 h): significantly labelled at a second site after 5 h
- bound to Kras G12D (K-Ras G12D; Kras G12D/GTPyS/Mg2+, 2 h incubation at RT): 100%
- binding to GTPyS versus GDP bound K-Ras G12D (K-Ras G12D; ~10 μM protein, 100 μM compound, RT, 5 and 23 hours): bound better when K-Ras was in complex with GTPyS/Mg2+
- K-Ras protein levels [2]: Changes at K-Ras protein levels are visible
- reactivity with Kras when BME is titrated in (Kras): reactivity of the compound being reduced
- extent of chemical modification of unprocessed KRAS4b ([3]; 8.8-fold molar excess of FB9, 1 h at 37° C., then 16 h at 22° C.): close to complete
- unprocessed K-ras 4B labeled with FB9 ([3]; protein preparation used for gel mobility comparison): about 70%
- extent of chemical modification of FmeKRAS4b (fmeKRAS4b; 7.6-fold molar excess of FB9, 1 h at 37° C., then 16 h at 22° C.): major form represented species with 1 added modification group
- covalent modification, GDP versus GppNHp loaded protein (fmeKRAS4b; 37° C. for 100 min, 350 Da mass addition): more pronounced when GTP analogue was present
- residue modified in FME-Kras4B (fmeKRAS4b; recombinant farnesylated-carboxymethylated protein): covalently modifies histidine 95 residue (H95); also recorded: His7 (i.e. H95 in the native protein) is modified
